Laboratory results reported in ChEMBL document CHEMBL1201862, “PubChem BioAssay data set” (2004).
Each block holds one compound with its values, some of them ahead of it. Calls of active or inactive are those of the source.

What was measured:
[1] = viability loss in Vero cells – cytotoxicity control for Vif-APOBEC3G degradation inhibitor project, dose response (AID 1117358); assay type: functional; settings: Vero
[2] = loss of viability in HepG2 cells – cell-based, CellTiter-Glo, cherry-picked, cytotoxicity control for Shn3 inhibitor project, dose response (AID 624134); assay type: functional
INS1 = experiment: INS-1E survival protection against cytokine death – cell-based, luminescence, retest, dose response (AID 449756); assay type: functional; settings: Rattus norvegicus, INS1;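 further: cell death triggered by IL-1 beta plus TNF-alpha plus IFN-gamma mixture; protective hits raise ATP signal compared with cytokine alone wells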
[3] = Luminescence Cell-Based Dose Confirmation HTS to Identify Inhibitors of Polyadenylation.; assay type: functional
[4] = reduction of Shn3 3'UTR-driven luciferase in osteoblasts – cell-based, Clone20 osteoblasts, firefly luciferase, cherry-picked, dose response (AID 624132); assay type: functional;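 further: firefly luciferase luminescence from reporter carrying the Shn3 3'UTR in osteoblasts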
[5] = non-specific 3'UTR reporter inhibition in Clone20-Shn3RL – cell-based, Renilla luciferase, cherry-picked, counter-screen for Shn3 inhibitor project, dose response (AID 624133); assay type: functional
[6] = target: Heat shock protein HSP 90-alpha (Homo sapiens, UniProt P07900); experiment: Luminescence-based dose response biochemical high throughput screening assay for inhibitors of the Heat Shock Protein 90 (HSP90). [Related pubchem assays: 1831 (Summary AID.), 1846 (Confirmation screen.), 1789 (Primary screen.)]
[7] = target: T1, Sphingosine 1-phosphate receptor 2 (Homo sapiens, UniProt O95136); experiment: Dose Response Cell-Based Assay for Agonists of the Sphingosine 1-Phosphate Receptor 2 (S1P2): Purchased Analogues. [Related pubchem assays: 1192, 373, 439 ]; assay type: functional
T1 sequence (O95136 whole entry): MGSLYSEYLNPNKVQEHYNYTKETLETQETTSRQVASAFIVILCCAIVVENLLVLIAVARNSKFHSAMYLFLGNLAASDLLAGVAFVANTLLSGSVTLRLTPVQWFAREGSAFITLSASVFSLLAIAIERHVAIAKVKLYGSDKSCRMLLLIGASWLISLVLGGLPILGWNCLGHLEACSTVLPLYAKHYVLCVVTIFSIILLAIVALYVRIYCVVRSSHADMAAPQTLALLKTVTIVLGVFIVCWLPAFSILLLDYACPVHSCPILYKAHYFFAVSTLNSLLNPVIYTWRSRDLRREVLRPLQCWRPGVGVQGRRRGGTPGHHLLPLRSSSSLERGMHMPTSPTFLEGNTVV

[8] = target: T2, Sphingosine 1-phosphate receptor 3 (Homo sapiens, UniProt Q99500); experiment: Dose Response Cell-Based Assay for Agonists of the Sphingosine 1-Phosphate Receptor 3 (S1P3): Purchased Analogues. [Related pubchem assays: 373, 439 ]; assay type: functional
T2 sequence (Q99500 whole entry): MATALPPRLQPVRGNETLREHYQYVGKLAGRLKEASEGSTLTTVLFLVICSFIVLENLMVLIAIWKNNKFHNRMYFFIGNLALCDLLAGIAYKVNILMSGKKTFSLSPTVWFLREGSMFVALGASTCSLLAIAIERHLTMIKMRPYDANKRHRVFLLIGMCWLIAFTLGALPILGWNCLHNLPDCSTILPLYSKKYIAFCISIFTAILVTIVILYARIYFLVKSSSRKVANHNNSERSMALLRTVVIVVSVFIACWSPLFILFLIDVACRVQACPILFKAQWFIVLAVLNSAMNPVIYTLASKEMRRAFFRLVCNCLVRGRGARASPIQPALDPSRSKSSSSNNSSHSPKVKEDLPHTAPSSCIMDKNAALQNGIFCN

[9] = target: Sphingosine 1-phosphate receptor 1 (Homo sapiens, UniProt P21453); experiment: Dose Response Cell-Based Assay for Agonists of the Sphingosine 1-Phosphate Receptor 1 (S1P1): Purchased Analogues. [Related pubchem assays: 1192, 373, 439 ]; assay type: functional
Sequence of Sphingosine 1-phosphate receptor 1 (P21453 whole entry): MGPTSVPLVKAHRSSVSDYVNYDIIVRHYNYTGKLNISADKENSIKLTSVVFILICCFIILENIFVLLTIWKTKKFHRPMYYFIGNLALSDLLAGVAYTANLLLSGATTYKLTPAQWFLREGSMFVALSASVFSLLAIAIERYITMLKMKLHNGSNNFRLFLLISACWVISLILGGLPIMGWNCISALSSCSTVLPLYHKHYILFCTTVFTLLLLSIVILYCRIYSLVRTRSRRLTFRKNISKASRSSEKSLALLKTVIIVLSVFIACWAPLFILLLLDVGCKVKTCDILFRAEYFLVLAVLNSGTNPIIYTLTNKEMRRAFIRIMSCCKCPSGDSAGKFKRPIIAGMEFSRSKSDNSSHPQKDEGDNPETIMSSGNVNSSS

[10] = target: Aryl hydrocarbon receptor (Homo sapiens, UniProt P35869); experiment: Luminescence-based cell-based high throughput dose response assay for activators of the Aryl Hydrocarbon Receptor (AHR). [Related pubchem assays: 2796 (Primary screen (AHR activators in singlicate)), 2845 (Confirmation screen (AHR activators in triplicate)), 434939 (Counterscreen (PXR activators in triplicate)), 2804 (Summary (AHR activators))]; assay type: ADME
Sequence of Aryl hydrocarbon receptor (P35869 whole entry): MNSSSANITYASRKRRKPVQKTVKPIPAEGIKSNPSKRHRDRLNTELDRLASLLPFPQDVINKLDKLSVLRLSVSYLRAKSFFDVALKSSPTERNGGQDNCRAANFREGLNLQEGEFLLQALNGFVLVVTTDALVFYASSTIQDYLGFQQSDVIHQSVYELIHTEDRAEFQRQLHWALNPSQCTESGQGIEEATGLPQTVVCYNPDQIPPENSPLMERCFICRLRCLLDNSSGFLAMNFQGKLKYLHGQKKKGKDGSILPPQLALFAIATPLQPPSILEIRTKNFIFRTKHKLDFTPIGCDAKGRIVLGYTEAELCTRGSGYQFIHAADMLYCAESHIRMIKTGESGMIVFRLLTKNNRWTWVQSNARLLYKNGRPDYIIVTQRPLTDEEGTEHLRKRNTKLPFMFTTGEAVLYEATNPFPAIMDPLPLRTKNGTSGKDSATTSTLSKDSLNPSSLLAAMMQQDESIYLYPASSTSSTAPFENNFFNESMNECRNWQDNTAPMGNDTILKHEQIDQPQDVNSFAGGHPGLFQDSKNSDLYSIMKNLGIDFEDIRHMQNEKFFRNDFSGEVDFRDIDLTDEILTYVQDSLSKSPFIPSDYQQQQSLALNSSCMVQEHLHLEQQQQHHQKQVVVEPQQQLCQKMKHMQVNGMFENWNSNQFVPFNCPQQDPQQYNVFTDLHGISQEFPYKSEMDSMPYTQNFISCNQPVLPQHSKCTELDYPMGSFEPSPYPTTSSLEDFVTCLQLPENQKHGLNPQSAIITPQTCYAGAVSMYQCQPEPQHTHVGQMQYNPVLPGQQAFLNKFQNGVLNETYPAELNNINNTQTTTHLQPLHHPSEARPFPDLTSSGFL

[11] = target: T1, Sphingosine 1-phosphate receptor 2; experiment: Dose Response Cell Based Assay for Agonists of the S1P2 Receptor. [Related pubchem assays: 729, 736, 843 ]; assay type: functional
[12] = Trypanosoma cruzi growth suppression in host cells – NIH3T3 host cells, beta-gal luminescence, confirmation (AID 2044); assay type: functional, cell-based;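 further: intracellular parasites grown in NIH/3T3 mouse fibroblasts as host cells; luminescent beta-galactosidase reporter signal from transgenic T. cruzi replicating inside host cells; inhibitors lower the luminescence signal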
[13] = target: 5-hydroxytryptamine receptor 1E (Homo sapiens, UniProt P28566); experiment: Counterscreen assay for S1P3 antagonists: Dose response cell-based high throughput screening assay to identify antagonists of the 5-Hydroxytryptamine Receptor Subtype 1E (5HT1E). [Related pubchem assays: 1429, 485 ]; assay type: functional
Sequence of 5-hydroxytryptamine receptor 1E (P28566 whole entry): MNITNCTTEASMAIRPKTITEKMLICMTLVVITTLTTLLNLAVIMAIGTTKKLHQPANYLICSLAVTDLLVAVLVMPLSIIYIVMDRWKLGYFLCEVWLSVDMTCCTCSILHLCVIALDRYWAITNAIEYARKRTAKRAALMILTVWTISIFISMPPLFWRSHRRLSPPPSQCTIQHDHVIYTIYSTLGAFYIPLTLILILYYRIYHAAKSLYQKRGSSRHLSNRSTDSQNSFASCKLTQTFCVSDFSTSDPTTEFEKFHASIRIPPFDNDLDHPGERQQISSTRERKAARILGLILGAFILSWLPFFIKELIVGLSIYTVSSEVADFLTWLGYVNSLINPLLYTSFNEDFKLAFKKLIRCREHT

[14] = NIH3T3 cell viability loss – ATP luminescence, mouse fibroblasts, counter-screen, dose response (AID 2010); assay type: functional, cell-based;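 further: cells exposed to compound for about 90 hours before reading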
[15] = target: T2, Sphingosine 1-phosphate receptor 3; experiment: Dose response cell-based high throughput screening assay for antagonists of the Sphingosine 1-Phosphate Receptor 3 (S1P3). [Related pubchem assays: 1429, 485 ]; assay type: functional

SMILES: Cc1ccc(S(=O)(=O)NCCCOC(=O)Nc2ccncc2)cc1
CC50 [1]: > 40 µM (active)

SMILES: COc1ccc(CNc2ncnc3sccc23)cc1
AC50 [2]: 36 µM (active) | AC50 (INS1): 5.39 µM (active) | EC50 [3]: > 120 µM (not active) | AC50 [4]: 1.66 µM (active) | AC50 [5]: 8.63 µM (active)

SMILES: O=C(CSc1nnc(-c2ccco2)o1)N(C1CCCCC1)C1CCCCC1
EC50 [7]: > 10 µM (not active) | EC50 [8]: 0.11 µM (active) | EC50 [9]: 0.278 µM (active)

SMILES: FC(F)(F)c1cccc(NC(S)=NC(c2ccccc2)c2ccccc2)c1
AC50 [2]: 21.2 µM (active) | EC50 [12]: 2.22 µM (active) | AC50 [4]: 7.17 µM (active) | IC50 [13]: > 50 µM (not active) | EC50 [14]: 9.61 µM (active) | AC50 [5]: 26.2 µM (active) | IC50 [15]: 3.29 µM (active)

Results, then the compound that gave them:

IC50 [6]: 0.314 µM (active)
SMILES: COC(=O)c1ccccc1OCCCOc1ccc(C=O)cc1OC

EC50 [10]: 0.965 µM (active)
SMILES: COc1ccc(NC(=O)c2cccc3c(Br)cccc23)cc1

EC50 [11]: > 50 µM (not active)
SMILES: Cc1ccc(CNC(=O)CCNC(=O)c2ccco2)cc1
